Data on seven molecules can be found in PMC3938834, “De Novo Peptide Design and Experimental Validation of Histone Methyltransferase Inhibitors” (PLoS ONE, 2014).

Broadly, the IC50 is the concentration that gives 50% inhibition.

Read-outs that look alike come from different tables or passages of the source. No end group written: not given here.

Assay [1] concerns the target T1, EZH2 (reconstituted recombinant PRC2 containing full length EZH2, SUZ12, EED, RBAP46/48) (Homo sapiens, UniProt Q15910).
T1 construct: reconstituted recombinant PRC2 (containing full length EZH2, SUZ12, EED, RBAP46/48)
As to the kind of experiment: radiometric EZH2 HMT enzymatic assay, 384-well Flashplate, 10-point dose titrations. In kind it is biochemical. As to the method:
Experiments were performed using radiometric EZH2 enzymatic assays prepared individually or in a semi-automated fashion on a 384-well platform. For the experiments shown in Figures 3.A, 3.C, and 3.D, 4 [drawing 50] g of oligonucleosomes was used per reaction. For the experiments shown in Figures 3.C–D, 3 [drawing 51] g of PRC2 complex were added. For all other HMT assays (Figure 4, Figure 5, and Table 2) the following balanced conditions (at Km for cofactor and substrate) were used. […] The putative peptide inhibitors were tested in single point assays and in 10-point dose titrations. The total volume of the reaction mixture was 30 [drawing 55] L. Reactions were incubated for 1 hour at [drawing 56] C. Reactions terminated by the addition of 10 [drawing 57] L, 5× Laemmli Sample Buffer were loaded onto 15% Tri-Glycine-Polyacrylamide gels and resolved by PAGE. Resolved proteins were transferred to PVDF membrane at 65 V for 2 hours. Membranes were stained with CBB, destained, dried, and exposed to imaging plates for 24 hours. Images were detected using an FLA-7000 bioimaging system (Fujifilm). Reactions terminated by the addition of SAH to a final concentration of 850 [drawing 58] M were transferred to a 384-well Flashplate (Perkin Elmer) and incubated for 90 min. Liquids were aspirated and wells washed with 1×60 [drawing 59] L of wash buffer (50 mM Tris, pH 8.5, 200 mM NaCl, 0.01% NP-40). Detection of incorporated radioactivity in Flashplates was carried out using a Topcount instrument (Perkin Elmer). Potential inhibitory peptides were tested in single point assays and in 10-point dose titrations. Mechanism of Action Enzymatic Assays were performed under the same conditions and using the same protocol. However, in the Mechanism of Action Enzymatic assays the assays were performed with varied enzyme, substrate, or cofactor concentration to identify the mechanism of inhibition.
In order to assess the inhibitory capability of the candidate peptides experimentally, HMT enzymatic assays were conducted. These HMT assays assessed the EZH2-dependent transfer of tritiated methyl-groups from the methyl-donor SAM to reconstituted oligonucleosomes (see Methods for details).
To quantitatively measure the inhibition properties of the designed sequences, peptide dose titrations were performed. The concentration of peptide required to suppress 50% of the enzymatic activity (i.e. half-maximal inhibitory concentration, [drawing 76] ) and the Hill coefficient (measure of cooperativity of binding) were calculated (Table 2).
Understanding the mechanism of action allows us to determine whether the competitive inhibition targeted by the design framework and the input biological constraints has been successful.

In the next assay the test system is EZH2. The following applies: small molecule inhibitor quoted for reference; cited from earlier work. Here is the method: To quantitatively measure the inhibition properties of the designed sequences, peptide dose titrations were performed. The concentration of peptide required to suppress 50% of the enzymatic activity (i.e. half-maximal inhibitory concentration, ) and the Hill coefficient (measure of cooperativity of binding) were calculated (Table 2).

T1 sequence (Q15910 whole entry): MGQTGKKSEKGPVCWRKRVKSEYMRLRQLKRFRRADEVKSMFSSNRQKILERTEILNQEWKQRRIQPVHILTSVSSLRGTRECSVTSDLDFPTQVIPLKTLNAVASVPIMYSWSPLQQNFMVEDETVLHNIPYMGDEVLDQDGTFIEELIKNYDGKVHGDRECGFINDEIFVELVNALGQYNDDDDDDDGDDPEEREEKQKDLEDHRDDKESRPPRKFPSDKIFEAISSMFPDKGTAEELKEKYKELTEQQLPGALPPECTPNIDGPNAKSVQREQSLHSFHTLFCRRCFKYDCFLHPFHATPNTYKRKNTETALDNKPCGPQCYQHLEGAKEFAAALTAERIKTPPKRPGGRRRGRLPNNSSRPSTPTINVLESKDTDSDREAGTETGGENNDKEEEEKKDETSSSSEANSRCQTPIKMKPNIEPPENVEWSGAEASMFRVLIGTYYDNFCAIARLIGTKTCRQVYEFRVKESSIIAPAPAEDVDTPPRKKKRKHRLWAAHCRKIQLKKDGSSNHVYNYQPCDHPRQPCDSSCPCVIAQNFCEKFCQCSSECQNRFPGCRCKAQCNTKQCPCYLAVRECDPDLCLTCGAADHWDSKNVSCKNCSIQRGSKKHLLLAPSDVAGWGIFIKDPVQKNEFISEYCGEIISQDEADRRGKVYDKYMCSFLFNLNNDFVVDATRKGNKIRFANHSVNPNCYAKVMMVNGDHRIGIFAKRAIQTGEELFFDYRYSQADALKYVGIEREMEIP
T1 sequence (Q15022 whole entry partner): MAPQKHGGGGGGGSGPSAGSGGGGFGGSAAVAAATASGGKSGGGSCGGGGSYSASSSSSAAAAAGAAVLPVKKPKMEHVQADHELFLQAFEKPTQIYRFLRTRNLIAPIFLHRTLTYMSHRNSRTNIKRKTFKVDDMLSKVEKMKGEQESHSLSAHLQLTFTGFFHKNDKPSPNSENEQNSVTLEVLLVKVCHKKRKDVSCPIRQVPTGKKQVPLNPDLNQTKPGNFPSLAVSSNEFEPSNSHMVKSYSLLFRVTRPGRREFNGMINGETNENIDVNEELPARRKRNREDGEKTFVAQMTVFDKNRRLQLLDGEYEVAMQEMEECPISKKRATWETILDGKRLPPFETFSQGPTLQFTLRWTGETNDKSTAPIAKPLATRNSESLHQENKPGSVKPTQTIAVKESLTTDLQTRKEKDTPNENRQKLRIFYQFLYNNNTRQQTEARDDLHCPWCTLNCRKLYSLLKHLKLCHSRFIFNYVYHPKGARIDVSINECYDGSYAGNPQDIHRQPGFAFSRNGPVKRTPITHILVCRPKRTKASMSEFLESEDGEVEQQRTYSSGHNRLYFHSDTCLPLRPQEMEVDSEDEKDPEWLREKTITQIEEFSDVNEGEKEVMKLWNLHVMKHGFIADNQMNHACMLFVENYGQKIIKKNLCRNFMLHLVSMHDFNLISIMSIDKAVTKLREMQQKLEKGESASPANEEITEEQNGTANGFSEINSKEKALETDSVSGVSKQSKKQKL
T1 sequence (O75530 whole entry partner): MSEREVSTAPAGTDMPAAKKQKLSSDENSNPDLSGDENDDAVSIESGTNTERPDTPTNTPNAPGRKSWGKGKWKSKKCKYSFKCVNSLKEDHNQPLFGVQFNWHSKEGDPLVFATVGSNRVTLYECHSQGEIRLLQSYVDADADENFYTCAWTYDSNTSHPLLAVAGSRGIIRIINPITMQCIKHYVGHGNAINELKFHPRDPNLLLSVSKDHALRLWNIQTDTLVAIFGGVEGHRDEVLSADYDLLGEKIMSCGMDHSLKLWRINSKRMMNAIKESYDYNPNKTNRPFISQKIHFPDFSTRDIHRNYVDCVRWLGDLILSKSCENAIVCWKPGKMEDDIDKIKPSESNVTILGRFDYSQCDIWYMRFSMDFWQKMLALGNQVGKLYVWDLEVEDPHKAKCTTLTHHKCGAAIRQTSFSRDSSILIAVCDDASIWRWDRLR
T1 sequence (Q09028 whole entry partner): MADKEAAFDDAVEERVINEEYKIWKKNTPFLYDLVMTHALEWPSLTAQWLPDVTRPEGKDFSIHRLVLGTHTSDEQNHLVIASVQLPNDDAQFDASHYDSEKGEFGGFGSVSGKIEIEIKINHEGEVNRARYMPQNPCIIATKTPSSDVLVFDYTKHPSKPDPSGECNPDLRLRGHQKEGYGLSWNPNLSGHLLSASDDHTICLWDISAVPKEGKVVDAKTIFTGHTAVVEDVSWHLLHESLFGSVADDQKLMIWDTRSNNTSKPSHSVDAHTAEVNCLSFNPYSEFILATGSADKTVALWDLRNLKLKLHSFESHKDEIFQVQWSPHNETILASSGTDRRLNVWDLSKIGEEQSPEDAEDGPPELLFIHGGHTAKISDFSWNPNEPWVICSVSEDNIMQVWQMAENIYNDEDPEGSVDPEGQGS

Take GKAPRKQLARRKWWFNYPQNG [SQ037]: the IC50 stood at 8.05 µM in assay [1] (Figure 5, high throughput radiometric assay, SQ037 versus native and mutated peptides, value printed in the picture without unit, read-out: IC50); 13.6 ± 1.24 µM in assay [1] (read-out: IC50).
As for GKAPRKQLAPKAATKNARATS [SQ026], the IC50 in assay [1] (read-out: IC50) was 19.6 ± 1.12 µM.
For GKAPRKQLASAKKAAATPRTG [SQ010], the 50% inhibitory concentration (IC50) in assay [1] (read-out: IC50) worked out at 54.9 ± 1.26 µM.
Same read-out and setting: the figure for GKAPRKQLARKNWWKNYPRDG [SQ043] is 39.7 ± 1.17 µM.
Still for that read-out and setting: the figure for GKAPRKQLANRKWWKNYPRDG [SQ040] is 41 ± 1.19 µM.
With GKAPRKQLASKAARAATPKTG [SQ020], the IC50 in assay [1] was 34.2 ± 1.46 µM.
Regarding `CCC(CC)n1ccc2c(C(=O)NCc3c(C)cc(C)[nH]c3=O)cc(C#N)cc21` [EI1], in the assay with EZH2, the IC50 is approximately 0.015 µM.
